Values of other authors, collected in US20170252312A1, “PREPARATIONS FOR TREATMENT AND PREVENTION OF ALCOHOL FLUSHING AND ALCOHOL-INDUCED HYPERSENSITIVITY REACTIONS” (BIOHIT OYJ, priority 2014, published 2017).

Key:
[1] = system: ADH enzyme; details: ALDH2-deficient individuals
[2] = system: human mast cells
[3] = system: rat mast cells
[4] = system: microbial acetaldehyde formation from ethanol

Cc1cn[nH]c1 [4-MP, 4-methylpyrazole]
alcohol-induced increase in salivary acetaldehyde levels [1]: markedly decrease | flushing response to alcohol [1]: suppressed also significantly | increase in heart rate and skin temperature and drop in diastolic blood pressure ([1]; 4-MP used before ethanol intake): disappeared

CC=O [Acetaldehyde]
histamine release [2]: enhance histamine release | histamine release [3]: enhance histamine release

OC[C@@H](O)[C@H](O)[C@@H](O)CO [xylitol]
inhibition of microbial acetaldehyde formation from ethanol [4]: inhibit microbial acetaldehyde formation from ethanol
